Assay results reported in article PMC11618975, “Design and Development of Novel Hybrids Based on Pyrrolo[2,1‐f][1,2,4]Triazine and 1‐(Methylpiperidin‐4‐yl) Aniline–Based Analogs: Exploring the Utility as Anticancer Agents via MERTK Inhibition” (Chemical Biology & Drug Design, 2024).
“Also recorded” adds a separate entry of the source. Where two headings read alike, the source gives them in different places.

How the values were obtained:
[1] = tested on: MCF-7 breast cancer cells; assay: Cell viability (resazurin) assay, MCF-7; assay type: cell-based; settings: read-out: IC50 values (mean ± SD) MCF-7
Method: (§1) This includes lung cancer cells (A549) and breast cancer cells (MCF‐7 and MDA‐MB‐231). […] The remaining compounds were also found to portray the inhibition at a low micromolar range and better than the cisplatin, employed as a positive control during the experiment.
(§2) The cell viability assay of new compounds was performed against A549, MCF‐7, and MDA‐MB‐231 carcinoma cell lines. The cells (2500 cells/well) were seeded in a 96‐well plate using DMEM media (Gibco by Life Technologies) consisting of 10% FBS and subjected to incubation at 37°C for 24 h in 5% CO2 in a Nuaire incubator (humidified) for adherence to surface and growth. After 24 h, cells were subjected to treatment against target compounds (1K1‐1K5) at different concentrations (final concentrations ranging from 0.01–30 μM) and left for incubation for 72 h at the same conditions as mentioned above. The same procedure was repeated after 72 h after replacing the remaining test compound with fresh media and incubating treated cells for a further 48 h. After incubation, the remaining compounds with media were removed followed by washing with fresh media and the addition of 100 μL of resazurin (1 mM, Sigma). The 96‐well plate was incubated for 4 h at room temperature. A multimode microplate reader was used to record fluorescence at 535 nm (excitation) and 590 nm (emission) wavelengths. Background fluorescence was subtracted for calculating final results and avoiding any interference and normalized against vehicle control (DMSO treated cells) to calculate final cell viability. Cell viability (percentage) was used to calculate the IC50 values of the target compounds using fitting the curve to the “four‐parameter variable slope logistic model” using Prism Graph Pad (Kathuria et al. [2023]; Rani et al. [2023]).

[2] = Human liver microsomal stability (DMPK); assay type: in vitro ADME; settings: for % parent remaining: human liver microsomes 0.5 mg/mL, 1 μM compound, NADPH, 30 min; for half-life at 1 μM: human, liver microsomes, pH 7.4, human liver microsomes, read-out: T 1/2 (HLM); for microsomal CLint at 1 μM: pH 7.4, human liver microsomes, read-out: CLint (HLM)
Method: (§3) To understand the intrinsic pharmacokinetics of synthetics and their stability in relation to human liver microsomal (HLM) and mouse liver microsomal (MLM), we performed the DMPK studies.
(§4) The DMPK evaluation involves multiple reagents and instruments. The chemical and reagents include synthesized target molecules (at a concentration of 1–3 mg), DMSO (HPLC grade), PBS (pH = 7.4), NADPH, and liver microsomes (human and mouse) procured from Thermo. The instruments include Nexera X2 UPLC with an AB Sciex QTrap 4500 MS/MS detector (Shimadzu), single and multichannel micropipette (Eppendorf USA and Thermo), a 96‐well plate (1 mL capacity with deep wells) vortex mixer (Tarsons), centrifuge tubes (Tarsons) water bath (MRC), and a centrifuge (Thermo). The fresh stock solutions (10 mM) were prepared and incubations were carried out in duplication. Each well‐comprised potassium phosphate buffer (100 mM, pH 7.4) with 0.5 mg/mL microsome, NADPH (1 mM), and target molecule (1 μM). After 30 min incubation (37°C), the aliquots were taken at 0 and 30 min and quenched with chilled acetonitrile comprising Terfenadine as internal standard. The samples were centrifuged at 4000 rpm at 4°C, and the supernatant was subjected to LC–MS/MS for analysis. The experiment was used to determine the half‐life of the compound with the help of peak area ratio relative to the internal standard.

[3] = tested on: A549 lung cancer cells; assay: Cell viability (resazurin) assay, A549; assay type: cell-based; settings: read-out: IC50 values (mean ± SD) A549
Method: as §1, §2

[4] = tested on: MDA-MB-231 breast cancer cells; assay: Cell viability (resazurin) assay, MDA-MB-231; assay type: cell-based; settings: MDA-MB-231 cells, read-out: IC50 values (mean ± SD) MDA-MB-231
Method: as §1, §2

[5] = target: T1, MERTK (cMER) (Homo sapiens, UniProt Q12866); assay: MERTK kinase inhibition assay (Z-Lyte kinase assay kit); assay type: biochemical
T1 sequence (Q12866 21-999): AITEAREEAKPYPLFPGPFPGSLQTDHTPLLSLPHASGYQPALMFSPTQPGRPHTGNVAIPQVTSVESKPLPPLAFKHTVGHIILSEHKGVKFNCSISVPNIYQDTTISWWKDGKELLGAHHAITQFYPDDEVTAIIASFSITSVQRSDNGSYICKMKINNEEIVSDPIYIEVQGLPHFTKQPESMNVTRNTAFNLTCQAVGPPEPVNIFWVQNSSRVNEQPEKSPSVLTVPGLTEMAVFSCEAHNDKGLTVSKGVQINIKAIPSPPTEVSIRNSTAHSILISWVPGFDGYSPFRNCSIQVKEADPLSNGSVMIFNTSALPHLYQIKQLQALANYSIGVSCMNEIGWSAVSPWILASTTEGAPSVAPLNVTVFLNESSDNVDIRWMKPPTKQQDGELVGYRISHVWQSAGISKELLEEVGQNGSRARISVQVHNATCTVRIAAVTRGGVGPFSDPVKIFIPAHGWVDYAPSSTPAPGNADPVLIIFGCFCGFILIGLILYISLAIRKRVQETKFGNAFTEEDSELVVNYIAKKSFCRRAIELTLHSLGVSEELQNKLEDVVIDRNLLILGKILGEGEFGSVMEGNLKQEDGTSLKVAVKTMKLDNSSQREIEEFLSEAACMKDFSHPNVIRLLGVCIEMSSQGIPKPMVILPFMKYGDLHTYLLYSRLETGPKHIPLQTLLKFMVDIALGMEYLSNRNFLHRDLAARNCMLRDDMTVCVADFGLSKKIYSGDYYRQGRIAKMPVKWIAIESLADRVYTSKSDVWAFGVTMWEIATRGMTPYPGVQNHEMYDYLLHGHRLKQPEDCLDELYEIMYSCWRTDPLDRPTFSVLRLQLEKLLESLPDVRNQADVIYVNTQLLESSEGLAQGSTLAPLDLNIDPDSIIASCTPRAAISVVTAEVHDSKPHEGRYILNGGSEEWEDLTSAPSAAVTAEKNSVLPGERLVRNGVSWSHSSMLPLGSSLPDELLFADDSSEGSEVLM
Method: All the synthesized molecules were assessed for their kinase inhibitory activity against MERTK using a kinase inhibition assay.
[…] (z‐Lyte kinase assay kit‐tyr4 peptide) was utilized to determine MERTK inhibitory activity as per the protocol supplied by the supplier along with the kit. Briefly, the mixture of MERTK (cMER) / Tyr 02 (2X) was made using HEPES buffer (50 mM, pH 7.5) comprising polyoxyethylene lauryl ether solution (0.01%), MgCl2 (10 mM), MnCl2 (4 mM), EGTA (1 mM), and DTT (2 mM). The kinase solution of 10 μL was used as the final reaction solution. In the next step, the target molecules in varying concentrations were incubated with kinase solution for 1 h. Development reagent A (5 μL) of 1:128 dilution was added after the incubation period. The fluorescence was measured at Ex/Em 400, 445, and 520 nm using a microplate reader for the determination of final percentage inhibition. The percent phosphorylation was determined via the use of the emission ratio calculated from the division of Coumarin Emission (at 445 nm) to fluorescein emission (at 520 nm). %phosphorylation=1−Emission ratio×F100%−C100%/C0%−C100%+Emission ratioF100%−F0%

[6] = Mouse liver microsomal stability (DMPK); assay type: in vitro ADME; settings: for % parent remaining: mouse liver microsomes 0.5 mg/mL, 1 μM compound, NADPH, 30 min; for half-life at 1 μM: mouse, liver microsomes, pH 7.4, mouse liver microsomes, read-out: T 1/2 (MLM); for microsomal CLint at 1 μM: pH 7.4, mouse liver microsomes, read-out: CLint (MLM)
Method: as §3, §4

[7] = Homo sapiens, MCF7, MCF-7 cells

Q: With `CCOc1ccc(-c2cc3c(Nc4ccc(C5CCN(C)CC5)c(F)c4)ncnn3c2)cc1OC` [1K5, 6‐(4‐Ethoxy‐3‐Methoxyphenyl)‐N‐(3‐Fluoro‐4‐(1‐Methylpiperidin‐4‐yl)phenyl)pyrrolo[2,1‐f][1,2,4]Triazin‐4‐Amine] as the compound, how does the IC50 [1, 7] read?
A: Its IC50 is 420 ± 17 nM.

Q: And the % parent remaining [2]?
A: The % parent remaining was 94.9%.

Q: And the half-life at 1 μM [2]?
A: Its half-life at 1 μM is 6.61 h.

Q: What about the microsomal CLint at 1 μM [2] of the same compound?
A: The microsomal CLint at 1 μM was 3 µL/min/mg.

Q: And the IC50 ([3]; Homo sapiens)?
A: Its IC50 is 360 ± 19 nM.

Q: What about the IC50 ([4]; Homo sapiens) of the same compound?
A: The IC50 was 800 ± 11 nM.

Q: And the “inhibition of MERTK” value ([5]; 1 and 10 μM test concentrations)?
A: Its value is “approx. 42%”.

Q: What about the “MERTK inhibition compared with positive control staurosporine” value ([5]; listed as IK5) of the same compound?
A: The value was “comparable inhibition to positive control staurosporine; also recorded: comparable inhibitory potential to the positive control drug staurosporine”.

Q: And the % parent remaining [6]?
A: The % parent remaining was 79.7%.

Q: What about the half-life at 1 μM [6] of the same compound?
A: Its half-life at 1 μM is 1.54 h.

Q: And the microsomal CLint at 1 μM [6]?
A: The microsomal CLint at 1 μM was 15 µL/min/mg.

Q: Which IC50 [1, 7] does the source give for `COc1cc(-c2cc3c(Nc4ccc(C5CCN(C)CC5)c(F)c4)ncnn3c2)cc(Cl)c1F` [1K4, 6‐(3‐Chloro‐4‐Fluoro‐5‐Methoxyphenyl)‐N‐(3‐Fluoro‐4‐(1‐Methylpiperidin‐4‐yl)phenyl)pyrrolo[2,1‐f][1,2,4]Triazin‐4‐Amine] here?
A: Its IC50 is 1140 ± 11 nM.

Q: What about the % parent remaining [2] of the same compound?
A: Its % parent remaining is 75.8%.

Q: What about the half-life at 1 μM [2] of the same compound?
A: The half-life at 1 μM was 1.25 h.

Q: What about the microsomal CLint at 1 μM [2] of the same compound?
A: The microsomal CLint at 1 μM was 18 µL/min/mg.

Q: What about the IC50 ([3]; Homo sapiens) of the same compound?
A: The IC50 was 890 ± 11 nM.

Q: And the IC50 ([4]; Homo sapiens)?
A: Its IC50 is 1470 ± 14 nM.

Q: What about the % parent remaining [6] of the same compound?
A: The % parent remaining was 91.7%.

Q: What about the half-life at 1 μM [6] of the same compound?
A: The half-life at 1 μM was 3.97 h.

Q: And the microsomal CLint at 1 μM [6]?
A: The microsomal CLint at 1 μM was 6 µL/min/mg.

Q: For `CCOc1c(Cl)cc(-c2cc3c(Nc4ccc(C5CCN(C)CC5)c(F)c4)ncnn3c2)cc1OC` [1K2, 6‐(3‐Chloro‐4‐Ethoxy‐5‐Methoxyphenyl)‐N‐(3‐Fluoro‐4‐(1‐Methylpiperidin‐4‐yl)phenyl)pyrrolo[2,1‐f][1,2,4]Triazin‐4‐Amine], which IC50 [1, 7] is on record?
A: The IC50 was 440 ± 15 nM.

Q: What about the % parent remaining [2] of the same compound?
A: Its % parent remaining is 82.8%.

Q: What about the half-life at 1 μM [2] of the same compound?
A: Its half-life at 1 μM is 1.83 h.

Q: And the microsomal CLint at 1 μM [2]?
A: Its microsomal CLint at 1 μM is 13 µL/min/mg.

Q: What about the IC50 ([3]; Homo sapiens) of the same compound?
A: The IC50 was 1180 ± 19 nM.

Q: And the IC50 ([4]; Homo sapiens)?
A: The IC50 was 1700 ± 11 nM.

Q: What about the % parent remaining [6] of the same compound?
A: Its % parent remaining is 83.4%.

Q: What about the half-life at 1 μM [6] of the same compound?
A: Its half-life at 1 μM is 1.9 h.

Q: What about the microsomal CLint at 1 μM [6] of the same compound?
A: Its microsomal CLint at 1 μM is 12 µL/min/mg.

Q: Which results are given for `N.N.[Cl][Pt][Cl]` [Cisplatin, cisplatin, reference compound]?
A: IC50 ([1]; MCF-7 cells): 4930 ± 130 nM; IC50 [3]: 5860 ± 9 nM; IC50 [4]: 5420 ± 90 nM

Q: For `CN1CCC(c2ccc(Nc3ncnn4cc(-c5ccc(C(C)(C)C)cc5)cc34)cc2F)CC1` [1K3, 6‐(4‐(Tert‐butyl)phenyl)‐N‐(3‐Fluoro‐4‐(1‐Methylpiperidin‐4‐yl)phenyl)pyrrolo[2,1‐f][1,2,4]Triazin‐4‐Amine], which IC50 [1, 7] is on record?
A: Its IC50 is 1420 ± 21 nM.

Q: What about the % parent remaining [2] of the same compound?
A: The % parent remaining was 65.7%.

Q: What about the half-life at 1 μM [2] of the same compound?
A: The half-life at 1 μM was 0.615 h.

Q: What about the microsomal CLint at 1 μM [2] of the same compound?
A: Its microsomal CLint at 1 μM is 28 µL/min/mg.

Q: And the IC50 ([3]; Homo sapiens)?
A: Its IC50 is 1440 ± 17 nM.

Q: And the IC50 ([4]; Homo sapiens)?
A: The IC50 was 4060 ± 19 nM.

Q: What about the % parent remaining [6] of the same compound?
A: The % parent remaining was 57%.

Q: What about the half-life at 1 μM [6] of the same compound?
A: Its half-life at 1 μM is 0.823 h.

Q: And the microsomal CLint at 1 μM [6]?
A: Its microsomal CLint at 1 μM is 38 µL/min/mg.

Q: Which IC50 [1, 7] does the source give for `CN1CCC(c2ccc(Nc3ncnn4cc(-c5cc(F)c(F)c(F)c5)cc34)cc2F)CC1` [1K1, N‐(3‐Fluoro‐4‐(1‐Methylpiperidin‐4‐yl)phenyl)‐6‐(3,4,5‐trifluorophenyl)pyrrolo[2,1‐f][1,2,4]Triazin‐4‐Amine] here?
A: The IC50 was 1280 ± 14 nM.

Q: And the % parent remaining [2]?
A: The % parent remaining was 71.7%.

Q: And the half-life at 1 μM [2]?
A: Its half-life at 1 μM is 1.04 h.

Q: And the microsomal CLint at 1 μM [2]?
A: The microsomal CLint at 1 μM was 22 µL/min/mg.

Q: And the IC50 ([3]; Homo sapiens)?
A: The IC50 was 8630 ± 21 nM.

Q: What about the IC50 ([4]; Homo sapiens) of the same compound?
A: The IC50 was 4020 ± 15 nM.

Q: And the % parent remaining [6]?
A: Its % parent remaining is 70%.

Q: What about the half-life at 1 μM [6] of the same compound?
A: The half-life at 1 μM was 0.972 h.

Q: What about the microsomal CLint at 1 μM [6] of the same compound?
A: The microsomal CLint at 1 μM was 24 µL/min/mg.
